From US10596259B2, “Tumor radiosensitization with monomethyl auristatin E (MMAE) and derivatives thereof” (The Regents of the University of California, priority 2015, dated 2020)
Read-outs that look alike come from different tables or passages of the source.

Assays:
Assay in all cases: Alamar Blue cell viability assay
Format in all cases: cell-based, Human
CAL-27 cells = conditions: 72 hours
Description: (§1) Alamar Blue (resazurin) was added to the cells and allowed to incubate for 2 hrs at 37° C. Plates were analyzed using a plate reader with fluorescence measured at 560 nm.

SCC-61 cells = conditions: 72 hours
Description: as §1

SCC-35 cells = conditions: 72 hours
Description: as §1

SQ-9G cells = conditions: 72 hours
Description: as §1

HCT-116 cells = conditions: Homo sapiens, HCT-116, 72 h, read-out: IC50
Description: (§2) Alamar Blue (also known as resazurin) was added to the cells and allowed to incubate for 2 hrs at 37° C. Plates were analyzed using a plate reader with fluorescence measured at 560 nm. For irradiated cells, cells were treated with MMAE overnight followed by 6 Gy.
as §1
(§3) Cells were plated in 96-well plates and exposed to MMAE or paclitaxel for 72 hours and analyzed at 560 nm. For irradiated cells, cells were treated with MMAE overnight followed by 6 Gy.

PANC-1 cells = conditions: Homo sapiens, PANC-1, 72 h, read-out: IC50
Description: as §2, with “Cells were plated in 96 well plates at varying cell densities and exposed to range of concentrations of MMAE or paclitaxel for 72 hrs. Alamar” for “Alamar”
as §3

779E cells = conditions: Homo sapiens, 72 h
Description: as §2, with “Cells were plated in 96 well plates at varying cell densities and exposed to range of concentrations of MMAE or paclitaxel for 72 hrs. Alamar” for “Alamar”
as §3

`N.N.[Cl][Pt][Cl]` [cisplatin] was tested, and the IC50 (CAL-27 cells) was 5000 nM, the IC50 (SCC-61 cells) was 10000 nM and the IC50 (SCC-35 cells) was 30000 nM. For the same molecule, the IC50 (SQ-9G cells) was 13000 nM.
In the case of `CC(=O)O[C@H]1C(=O)[C@@]2(C)[C@H]([C@H](OC(=O)c3ccccc3)[C@]3(O)C[C@H](OC(=O)[C@H](O)[C@@H](NC(=O)c4ccccc4)c4ccccc4)C(C)=C1C3(C)C)[C@]1(OC(C)=O)CO[C@@H]1C[C@@H]2O` [paclitaxel], the IC50 (HCT-116 cells; 72 hours exposure (Example 3)) is reported as 10 nM, the IC50 (HCT-116 cells; 72 hours exposure) is reported as 10 nM and the IC50 (PANC-1 cells; 72 hours exposure (Example 3)) is reported as 15.1 nM. It also gave an IC50 (PANC-1 cells; 72 hours exposure) of 15.1 nM, an IC50 (779E cells; 72 hours exposure) of 52 nM and an IC50 (779E cells; 72 hours exposure (Example 3)) of 52 nM.
